Measured values reported in patent publication US9326988B2, “Treatment and/or prevention of parkinson's disease dementia with ceftriaxone” (CHUNG SHAN MEDICAL UNIVERSITY, priority 2012, dated 2016).

Test system: rats with PDD
Assay: T-maze test (working memory) in MPTP-HCl-induced PDD rats
Format: in vivo, male Wistar rats
Description: 1-methyl-4-phenyl-1,2,3,6-tetrahydropyridine hydrochloride (MPTP-HCl) was used to induce PDD in the rats, and the therapeutic effect of ceftriaxone on PDD was evaluated via behavioral tests and histopathological assessment of the brain for the rats. The experiments of this example were conducted substantially according to the method as described in Ho Y. J. et al. (2011), Behav. Brain Res., 219:280-290.
The rats in the pathological control group, the preventive groups, and the treatment groups were anesthetized using Zoletil (Virbac, Carros, France; 20 mg/kg, intraperitoneal injection). Afterward, 0.5 M MPTP-HCl (in saline) was slowly infused bilaterally into the substantia nigra pars compacta (SNc) of the mesencephalon of each rat in the pathological control group, the preventive groups, and the treatment groups (0.21 mg/side) so as to induce the same to develop PDD.
5 days before the MPTP-HCl injection, ceftriaxone (Sigma) was administered to the rats in the preventive groups 1,2 via […] day after the MPTP-HCl injection. After the MPTP-HCl injection, […] 2,3 via intraperitoneal injection respectively at a daily dose of 200 mg/kg, at a daily dose of 100 mg/kg, and at a daily dose of 200 mg/kg, and saline was administered to the rats in the pathological control group and the sham-operated group 1 via intraperitoneal injection at a daily dose of 1 mL/kg. […] The rats in the pathological control group, the treatment groups 1,2,3, and the sham-operated groups 1,2,3 were subjected to the once-a-day administration until the end of the 14th day after the MPTP-HCl injection.
Starting on the 8th day after the MPTP-HCl injection, the rats in each group were subjected to the T-maze test as described in section C of this example. Starting on the 12th day after the MPTP-HCl injection, the rats in each group were subjected to the object recognition test as described in section D of this example. On the 15th day after the MPTP-HCl injection, the rats in the treatment group 1, the sham-operated group 1, and the pathological control group were subjected to the histopathological analysis as described in section E of this example.
In order to investigate the effect of ceftriaxone on the working memory of the rats with PDD, on the 8th day after the MPTP-HCl injection, 11 rats, 32 rats, and 36 rats were randomly selected respectively from the treatment group 1, the sham-operated group 1, and the pathological control group, and the aforesaid randomly selected rats and each of the rats in the rest of the groups were subjected to a T-maze test. The T-maze test lasted a total of three days, and was conducted substantially according to the following methods: • (1) One day before the start of the T-maze test, the rats are subjected to 23 hours of fasting. Furthermore, on each of three days for the training session, after all of trials were finished, the rats were fed for an hour. • (2) The training session—the 1st and 2nd days of the T-maze test: • The respective rat is subjected to a total of 9 trials. In each of the trials, one forced run and one choice run were sequentially conducted. The time interval between the forced run and the choice run was 30 seconds. The respective rat was placed at the start end 11 of the T-maze to begin either the forced run or the choice run. When the forced run was conducted, the sliding door 22 of one of the two choice arms 2 was closed, and a food serving as a reward was placed at the terminal end 21 of the other one of the two choice arms 2.

Measured: correct response rate compared to the pathological control group

CO/N=C(\C(=O)N[C@@H]1C(=O)N2C(C(=O)O)=C(CSc3nc(=O)c(=O)[nH]n3C)CS[C@H]12)c1csc(N)n1 [ceftriaxone, Ceftriaxone]
significantly higher: Example 2 treatment group 1: 10 mg/kg daily i.p. after MPTP-HCl injection to 14th day, determined 10th day (FIG. 7) | Example 2 treatment group 2: 50 mg/kg daily i.p. after MPTP-HCl injection to 14th day, determined 10th day (FIG. 7)
higher: Example 1 preventive group 1: 100 mg/kg daily i.p. from 5 days before MPTP-HCl to 14th day after, determined 10th day (FIG. 3) | Example 1 preventive group 2: 200 mg/kg daily i.p. from 5 days before MPTP-HCl to 14th day after, determined 10th day (FIG. 3) | Example 1 treatment group 1: 200 mg/kg daily i.p. after MPTP-HCl injection to 14th day, determined 10th day, difference statistically significant (FIG. 3) | Example 1 treatment group 2: 100 mg/kg daily i.p. starting 3rd day after MPTP-HCl to 14th day, determined 10th day, difference statistically significant (FIG. 3) | Example 1 treatment group 3: 200 mg/kg daily i.p. starting 3rd day after MPTP-HCl to 14th day, determined 10th day, difference statistically significant (FIG. 3)
